Results as given in patent US11377656B2, “Chemically modified messenger RNA's” (Novartis AG, priority 2016, dated 2022).

Tests used:
[1] = tested on: HEK293 cells; test: Modified mRNA transfection and in vitro translation (secreted leptin ELISA); assay type: cell-based; settings: 1.5 micrograms capped leptin mRNA, Lipofectamine 2000, secreted leptin in medium at 24 h post-transfection
Method: Prior to transfection, the cells were seeded at a density 5×10^5 cells per well in 6-well plates. The following day, 1.5 micrograms of capped unmodified or chemically modified leptin mRNA was complexed with Lipofectamine 2000 (Life Technologies) and transfected into cells according to the manufacturer's protocol. At 24 h post-transfection, secreted leptin protein concentration in the culture medium was measured by an Enzyme-linked immunosorbent assay (ELISA) using the Human Leptin Quantikine ELISA kit from R&D Systems (Minneapolis, Minn.). Protein expression levels for chemically modified mRNAs are shown as a percent of the unmodified mRNA level.

[2] = target: T7 RNA polymerase (Escherichia phage T7, UniProt P00573); test: In vitro transcription (IVT) of mRNA with modified NTP; assay type: biochemical; settings: modified NTP at 100% substitution of the corresponding natural nucleotide; human leptin template; yield as percent of unmodified mRNA yield
Sequence of T7 RNA polymerase (P00573 whole entry): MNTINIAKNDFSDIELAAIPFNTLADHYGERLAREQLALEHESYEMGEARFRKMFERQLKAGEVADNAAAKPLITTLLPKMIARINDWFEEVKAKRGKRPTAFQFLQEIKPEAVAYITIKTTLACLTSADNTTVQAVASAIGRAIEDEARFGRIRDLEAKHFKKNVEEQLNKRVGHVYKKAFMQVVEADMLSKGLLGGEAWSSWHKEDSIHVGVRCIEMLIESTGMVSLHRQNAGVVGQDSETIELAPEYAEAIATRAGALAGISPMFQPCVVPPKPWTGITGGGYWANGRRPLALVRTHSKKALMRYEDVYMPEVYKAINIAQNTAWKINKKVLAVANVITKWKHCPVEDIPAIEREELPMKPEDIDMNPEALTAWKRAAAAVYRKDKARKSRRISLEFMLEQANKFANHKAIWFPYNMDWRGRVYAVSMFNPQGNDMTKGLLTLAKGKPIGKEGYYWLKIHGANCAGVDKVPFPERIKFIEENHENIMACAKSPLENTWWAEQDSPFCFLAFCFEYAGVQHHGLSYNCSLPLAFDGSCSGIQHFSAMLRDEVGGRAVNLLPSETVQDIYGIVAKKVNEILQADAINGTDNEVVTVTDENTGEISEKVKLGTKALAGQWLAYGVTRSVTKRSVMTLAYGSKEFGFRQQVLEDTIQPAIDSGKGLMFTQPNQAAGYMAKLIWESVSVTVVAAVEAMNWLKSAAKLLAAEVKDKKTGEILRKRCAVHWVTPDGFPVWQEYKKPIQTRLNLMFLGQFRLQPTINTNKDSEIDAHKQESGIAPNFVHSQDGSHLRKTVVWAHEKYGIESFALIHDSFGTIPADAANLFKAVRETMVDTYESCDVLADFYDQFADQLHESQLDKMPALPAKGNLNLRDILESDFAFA
Description: The modified synthetic mRNA was generated by in vitro transcription (IVT) incorporating the chemically modified nucleotide triphosphate (NTP) at 100% substitution of the corresponding natural nucleotide. The IVT plasmid template used contained a T7 promoter sequence and the human leptin coding sequence (Protein Accession #NP_000221) flanked by a 5′ untranslated region (UTR) of Tobacco Etch Virus with a strong Kozak sequence, and 2 tandem copies of the human beta-globin 3′UTR (Holtkamp S et al. (2006) Blood 108: 4009-4017) followed by a poly-A tail comprising 120 nucleotides in length.
A typical in vitro transcription reaction was done using the following protocol:
The IVT reagents in the Table above were mixed and incubated for 1-2 hours at 37° C. The DNA template was then digested with 0.04 U/μL DNase (New England Biolabs), and incubated for 30 minutes at 37° C. The mRNA was precipitated by adding lithium chloride (LiCl) solution (Ambion, Cat. #AM9480) to a final concentration of 2.81 M and incubating for >1 hour at −20° C. The mixture was centrifuged at 20,000×g for 15 minutes at 4° C., and then the supernatant was removed and the pellet washed with 70% ethanol. After centrifugation for 10 minutes, the ethanol was removed and the pellet was resuspended in nuclease-free water. In cases where the mRNA is used for HPLC purification, a second precipitation was done by adding 10% volume of 3 M sodium acetate pH 5.5 and 1 volume of room temperature isopropanol followed by incubation overnight at −20° C. The mRNA was centrifuged, washed and resuspended as described above. mRNA concentration was quantified using the NanoDrop and analyzed using an Agilent 2100 Bioanalyzer to confirm proper size and quality (i.e. no degradation). The modified mRNA can then be stored at −80° C. until capping.

Substance	In vitro translation (Protein quantity relative to unmodified mRNA in percentage) [1] [%]	In vitro transcription (mRNA quantity relative to unmodified NTP in percentage) [2] [%]
1-methoxyethyl-pseudouridine [compound 11]	<50	>50
1-methyoxymethyl-pseudouridine [compound 10]	>50	>50
5-methoxycarbonyamino-uridine [compound 5]	<50	>50
7-methyl-9-deazaguanosine [compound 16]	<50	>50
